Laboratory results published in ChEMBL document CHEMBL2321687, “Identification of a novel arylpiperazine scaffold for fatty acid amide hydrolase inhibition with improved drug disposition properties” (Bioorg Med Chem Lett, 2013).

Assays:
[1] = molecular target: T1, Fatty-acid amide hydrolase 1 (Mus musculus, UniProt O08914); experiment: Inhibition of FAAH in mouse brain homogenate using [3Hethanolamine]AEA as substrate incubated for 20 mins prior to substrate addition measured after 15 mins by beta counting analysis; type: tissue-based
T1 sequence (O08914 whole entry): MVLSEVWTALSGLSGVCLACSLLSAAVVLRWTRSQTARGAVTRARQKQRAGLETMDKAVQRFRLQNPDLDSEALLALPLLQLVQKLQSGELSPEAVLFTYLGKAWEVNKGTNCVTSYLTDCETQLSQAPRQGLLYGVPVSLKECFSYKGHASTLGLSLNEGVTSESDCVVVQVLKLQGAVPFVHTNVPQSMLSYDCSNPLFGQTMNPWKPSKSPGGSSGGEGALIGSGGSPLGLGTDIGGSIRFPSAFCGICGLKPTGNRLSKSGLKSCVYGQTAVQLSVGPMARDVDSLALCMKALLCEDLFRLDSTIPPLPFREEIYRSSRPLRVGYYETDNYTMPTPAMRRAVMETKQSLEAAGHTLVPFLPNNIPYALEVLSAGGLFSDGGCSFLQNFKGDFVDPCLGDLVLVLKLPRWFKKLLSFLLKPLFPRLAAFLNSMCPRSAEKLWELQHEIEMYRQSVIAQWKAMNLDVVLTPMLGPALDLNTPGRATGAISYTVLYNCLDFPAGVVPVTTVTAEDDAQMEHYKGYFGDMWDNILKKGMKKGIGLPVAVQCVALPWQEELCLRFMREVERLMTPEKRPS

[2] = organism: Rattus norvegicus; experiment: Displacement of [3H](-)D888 from rat L-type Ca2+ channel verapamil site in cerebral cortex; type: tissue-based; conditions: concentration not given here
[3] = molecular target: Mu-type opioid receptor (Homo sapiens) (UniProt P35372); experiment: Displacement of [3H]DAMGO from human recombinant mu opioid receptor expressed in HEK293 cells at 1 uM; type: cell-based
[4] = molecular target: Adenosine receptor A3 (Homo sapiens) (UniProt P0DMS8); experiment: Displacement of [3H]AB-MECA from human recombinant adenosine A3 receptor expressed in HEK293 cells at 1 uM; type: cell-based
[5] = molecular target: 5-hydroxytryptamine receptor 5A (Homo sapiens) (UniProt P47898); experiment: Displacement of [3H]LSD from human recombinant 5-HT5A receptor expressed in CHO cells at 1 uM; type: cell-based
[6] = molecular target: Histamine H1 receptor (Homo sapiens) (UniProt P35367); experiment: Displacement of [3H]pyrilamine from human recombinant H1 receptor expressed in HEK293 cells at 1 uM; type: cell-based
[7] = molecular target: Sodium-dependent noradrenaline transporter (Homo sapiens) (UniProt P23975); experiment: Displacement of [3H]nisoxetine from human recombinant NE transporter expressed in CHO cells at 1 uM; type: cell-based
[8] = molecular target: Adenosine receptor A1 (Homo sapiens) (UniProt P30542); experiment: Displacement of [3H]DPCPX from human recombinant adenosine A1 receptor expressed in CHO cells at 1 uM; type: cell-based
[9] = molecular target: Cholecystokinin receptor type A (Homo sapiens) (UniProt P32238); experiment: Displacement of [125I]CCK-8 from human recombinant CCKA receptor expressed in CHO cells at 1 uM; type: cell-based
[10] = molecular target: D(1A) dopamine receptor (Homo sapiens) (UniProt P21728); experiment: Displacement of [3H]SCH23390 from human recombinant D1 receptor expressed in CHO cells at 1 uM; type: cell-based
[11] = molecular target: C-X-C chemokine receptor type 2 (Homo sapiens) (UniProt P25025); experiment: Displacement of [125I]IL-8 from human recombinant CXCR2 receptor expressed in HEK293 cells at 1 uM; type: cell-based
[12] = molecular target: Melanocortin receptor 4 (Homo sapiens) (UniProt P32245); experiment: Displacement of [125I]NDP-a-MSH from human recombinant MC4 receptor expressed in CHO cells at 1 uM; type: cell-based
[13] = system: CHO; experiment: Displacement of [3H]DADLE from human recombinant delta2 opioid receptor expressed in CHO cells at 1 uM; type: cell-based
[14] = organism: Rattus norvegicus; experiment: Displacement of [35S]TBPS from rat GABA gated chloride channel in cerebral cortex; type: tissue-based; conditions: concentration not given here
[15] = molecular target: Nociceptin receptor (Homo sapiens) (UniProt P41146); experiment: Displacement of [3H]Nociceptin from human recombinant ORL1 receptor expressed in HEK293 cells at 1 uM; type: cell-based
[16] = organism: Rattus norvegicus; experiment: Displacement of [125I]a-dendrotoxin from rat K+ V channel in cerebral cortex; type: tissue-based; conditions: concentration not given here
[17] = molecular target: Vasoactive intestinal polypeptide receptor 1 (Homo sapiens) (UniProt P32241); experiment: Displacement of [125I]VIP from human recombinant VPAC1 receptor expressed in CHO cells at 1 uM; type: cell-based
[18] = molecular target: 5-hydroxytryptamine receptor 6 (Homo sapiens) (UniProt P50406); experiment: Displacement of [3H]LSD from human recombinant 5-HT6 receptor expressed in CHO cells at 1 uM; type: cell-based
[19] = molecular target: Type-1 angiotensin II receptor (Homo sapiens) (UniProt P30556); experiment: Displacement of [125I][Sar1,Ile8]-AT II from human recombinant AT1 receptor expressed in HEK293 cells at 1 uM; type: cell-based
[20] = molecular target: 5-hydroxytryptamine receptor 3A (Homo sapiens) (UniProt P46098); experiment: Displacement of [3H]BRL43694 from human recombinant 5-HT3 receptor expressed in CHO cells at 1 uM; type: cell-based
[21] = organism: Rattus norvegicus; experiment: Displacement of [3H]batrachotoxinin from rat Na+ channel site 2 in cerebral cortex; type: tissue-based; conditions: concentration not given here
[22] = molecular target: Beta-1 adrenergic receptor (Homo sapiens) (UniProt P08588); experiment: Displacement of [3H](-)CGP12177 from human recombinant beta1 receptor expressed in HEK293 cells at 1 uM; type: cell-based
[23] = molecular target: 5-hydroxytryptamine receptor 1B (Rattus norvegicus) (UniProt P28564); experiment: Displacement of [125I]CYP from rat 5-HT1B receptor in cerebral cortex; type: tissue-based; conditions: concentration not given here
[24] = molecular target: Histamine H2 receptor (Homo sapiens) (UniProt P25021); experiment: Displacement of [125I]APT from human recombinant H2 receptor expressed in CHO cells at 1 uM; type: cell-based
Histamine H2 receptor (Homo sapiens), sequence (P25021 whole entry): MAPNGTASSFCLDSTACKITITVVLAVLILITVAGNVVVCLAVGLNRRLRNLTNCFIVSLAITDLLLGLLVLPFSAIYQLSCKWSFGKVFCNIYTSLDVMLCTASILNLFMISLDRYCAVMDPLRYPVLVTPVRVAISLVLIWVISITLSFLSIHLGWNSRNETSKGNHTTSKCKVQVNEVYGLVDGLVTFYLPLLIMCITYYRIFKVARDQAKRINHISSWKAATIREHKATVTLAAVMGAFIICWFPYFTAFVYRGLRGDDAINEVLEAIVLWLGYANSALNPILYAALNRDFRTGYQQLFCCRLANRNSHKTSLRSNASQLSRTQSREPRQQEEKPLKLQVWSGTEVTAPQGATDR

[25] = molecular target: B2 bradykinin receptor (Homo sapiens) (UniProt P30411); experiment: Displacement of [3H]bradykinin from human recombinant B2 receptor expressed in CHO cells at 1 uM; type: cell-based
[26] = molecular target: 5-hydroxytryptamine receptor 2A (Homo sapiens) (UniProt P28223); experiment: Displacement of [3H]Ketanserin from human recombinant 5-HT2A receptor expressed in HEK293 cells at 1 uM; type: cell-based
[27] = molecular target: 5-hydroxytryptamine receptor 7 (Homo sapiens) (UniProt P34969); experiment: Displacement of [3H]LSD from human recombinant 5-HT7 receptor expressed in CHO cells at 1 uM; type: cell-based
[28] = molecular target: Endothelin-1 receptor (Homo sapiens) (UniProt P25101); experiment: Displacement of [125I]endothelin-1 from human recombinant ETA receptor expressed in CHO cells at 1 uM; type: cell-based
Endothelin-1 receptor (Homo sapiens), sequence (P25101 whole entry): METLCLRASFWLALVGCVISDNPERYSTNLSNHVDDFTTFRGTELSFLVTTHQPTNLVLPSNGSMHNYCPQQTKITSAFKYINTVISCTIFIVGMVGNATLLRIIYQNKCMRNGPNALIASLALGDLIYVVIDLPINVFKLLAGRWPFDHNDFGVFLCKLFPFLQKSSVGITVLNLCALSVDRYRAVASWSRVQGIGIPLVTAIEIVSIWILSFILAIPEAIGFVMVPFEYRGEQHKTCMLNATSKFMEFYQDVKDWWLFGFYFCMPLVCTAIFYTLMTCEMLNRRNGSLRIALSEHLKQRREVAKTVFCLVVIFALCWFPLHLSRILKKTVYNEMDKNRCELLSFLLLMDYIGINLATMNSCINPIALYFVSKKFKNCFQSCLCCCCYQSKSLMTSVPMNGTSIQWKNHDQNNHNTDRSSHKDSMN

[29] = molecular target: D(2) dopamine receptor (Homo sapiens) (UniProt P14416); experiment: Displacement of [3H]spiperone from human recombinant D2S receptor expressed in HEK293 cells at 1 uM; type: cell-based
D(2) dopamine receptor (Homo sapiens), sequence (P14416 whole entry): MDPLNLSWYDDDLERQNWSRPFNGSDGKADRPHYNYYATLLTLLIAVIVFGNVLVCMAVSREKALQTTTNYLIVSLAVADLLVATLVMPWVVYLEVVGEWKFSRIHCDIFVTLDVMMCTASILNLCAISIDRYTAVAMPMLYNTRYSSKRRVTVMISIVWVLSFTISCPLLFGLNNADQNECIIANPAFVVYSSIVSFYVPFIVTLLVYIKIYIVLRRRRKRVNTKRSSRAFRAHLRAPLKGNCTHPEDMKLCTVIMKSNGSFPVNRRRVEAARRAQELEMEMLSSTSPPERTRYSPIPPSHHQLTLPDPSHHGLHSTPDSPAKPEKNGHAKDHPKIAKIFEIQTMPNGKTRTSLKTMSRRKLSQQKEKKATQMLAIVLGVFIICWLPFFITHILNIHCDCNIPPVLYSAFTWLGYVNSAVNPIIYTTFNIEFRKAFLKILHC

[30] = molecular target: Sodium-dependent serotonin transporter (Homo sapiens) (UniProt P31645); experiment: Displacement of [3H]imipramine from human recombinant 5-HT transporter expressed in CHO cells at 1 uM; type: cell-based
[31] = molecular target: Neuromedin-K receptor (Homo sapiens) (UniProt P29371); experiment: Displacement of [3H]SR142801 from human recombinant NK3 receptor expressed in CHO cells at 1 uM; type: cell-based
Neuromedin-K receptor (Homo sapiens), sequence (P29371 whole entry): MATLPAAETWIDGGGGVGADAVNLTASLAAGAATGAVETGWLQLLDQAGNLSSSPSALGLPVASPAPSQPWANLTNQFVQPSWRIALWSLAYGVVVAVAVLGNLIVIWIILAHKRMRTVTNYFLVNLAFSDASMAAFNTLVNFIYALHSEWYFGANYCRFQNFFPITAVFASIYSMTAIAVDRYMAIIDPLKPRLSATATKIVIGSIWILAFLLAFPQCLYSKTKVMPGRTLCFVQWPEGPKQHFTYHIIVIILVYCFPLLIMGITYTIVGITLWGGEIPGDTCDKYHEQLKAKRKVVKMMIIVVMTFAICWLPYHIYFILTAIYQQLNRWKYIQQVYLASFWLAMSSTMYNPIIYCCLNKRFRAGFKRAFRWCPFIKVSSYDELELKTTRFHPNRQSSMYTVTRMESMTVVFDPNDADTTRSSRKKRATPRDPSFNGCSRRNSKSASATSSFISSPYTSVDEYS

[32] = molecular target: Adenosine receptor A2a (Homo sapiens) (UniProt P29274); experiment: Displacement of [3H]CGS21680 from human recombinant adenosine A2A receptor expressed in HEK293 cells at 1 uM; type: cell-based
[33] = molecular target: Muscarinic acetylcholine receptor M2 (Homo sapiens) (UniProt P08172); experiment: Displacement of [3H]AF-DX384 from human recombinant muscarinic M2 receptor expressed in CHO cells at 1 uM; type: cell-based
Muscarinic acetylcholine receptor M2 (Homo sapiens), sequence (P08172 whole entry): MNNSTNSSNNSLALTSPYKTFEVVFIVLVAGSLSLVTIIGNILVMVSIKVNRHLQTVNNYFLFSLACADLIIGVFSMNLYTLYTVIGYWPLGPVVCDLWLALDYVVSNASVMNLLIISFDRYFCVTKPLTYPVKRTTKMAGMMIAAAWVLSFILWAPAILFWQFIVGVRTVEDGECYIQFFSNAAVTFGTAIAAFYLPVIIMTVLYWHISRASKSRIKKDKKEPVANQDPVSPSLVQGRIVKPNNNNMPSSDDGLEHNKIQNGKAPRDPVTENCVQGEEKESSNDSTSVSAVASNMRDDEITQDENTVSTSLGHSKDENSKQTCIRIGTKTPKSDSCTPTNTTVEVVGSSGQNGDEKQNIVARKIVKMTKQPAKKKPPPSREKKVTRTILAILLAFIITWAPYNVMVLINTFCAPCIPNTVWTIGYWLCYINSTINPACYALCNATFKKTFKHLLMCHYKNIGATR

[34] = molecular target: Muscarinic acetylcholine receptor M3 (Homo sapiens) (UniProt P20309); experiment: Displacement of [3H]4-DAMP from human recombinant muscarinic M3 receptor expressed in CHO cells at 1 uM; type: cell-based
[35] = molecular target: Kappa-type opioid receptor (Rattus norvegicus) (UniProt P34975); experiment: Displacement of [3H]U69593 from rat recombinant kappa opioid receptor expressed in CHO cells at 1 uM; type: cell-based
[36] = molecular target: Somatostatin receptor (Mus musculus) (UniProt P30935+O08858+P30875+P30873+P49660); experiment: Displacement of [125I]Tyr11-somatostatin-14 from mouse sst receptor in AtT20 cells; type: cell-based; conditions: concentration not given here
Somatostatin receptor (Mus musculus), sequence (P30935 whole entry): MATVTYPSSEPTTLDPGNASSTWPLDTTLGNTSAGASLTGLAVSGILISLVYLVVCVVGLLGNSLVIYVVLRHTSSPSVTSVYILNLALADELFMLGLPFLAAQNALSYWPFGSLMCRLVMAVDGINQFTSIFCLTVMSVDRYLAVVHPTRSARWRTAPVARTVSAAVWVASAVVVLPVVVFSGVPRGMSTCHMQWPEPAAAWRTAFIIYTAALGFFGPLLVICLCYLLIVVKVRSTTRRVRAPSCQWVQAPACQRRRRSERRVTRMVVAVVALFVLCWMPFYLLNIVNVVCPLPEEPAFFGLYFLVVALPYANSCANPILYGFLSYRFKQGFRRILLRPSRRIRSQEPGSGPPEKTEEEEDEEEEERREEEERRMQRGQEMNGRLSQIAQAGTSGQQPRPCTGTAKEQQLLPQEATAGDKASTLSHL
Somatostatin receptor (Mus musculus), sequence (O08858 whole entry): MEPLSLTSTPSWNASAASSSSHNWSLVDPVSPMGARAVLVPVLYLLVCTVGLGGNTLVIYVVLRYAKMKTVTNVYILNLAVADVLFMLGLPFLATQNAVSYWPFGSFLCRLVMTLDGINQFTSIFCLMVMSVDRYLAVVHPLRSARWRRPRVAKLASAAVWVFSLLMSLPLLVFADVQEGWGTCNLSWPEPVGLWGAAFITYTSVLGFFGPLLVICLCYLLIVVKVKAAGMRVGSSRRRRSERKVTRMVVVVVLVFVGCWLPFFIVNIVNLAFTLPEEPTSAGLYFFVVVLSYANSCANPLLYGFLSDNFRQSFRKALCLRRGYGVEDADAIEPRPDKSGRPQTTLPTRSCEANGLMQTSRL
Somatostatin receptor (Mus musculus), sequence (P30875 whole entry): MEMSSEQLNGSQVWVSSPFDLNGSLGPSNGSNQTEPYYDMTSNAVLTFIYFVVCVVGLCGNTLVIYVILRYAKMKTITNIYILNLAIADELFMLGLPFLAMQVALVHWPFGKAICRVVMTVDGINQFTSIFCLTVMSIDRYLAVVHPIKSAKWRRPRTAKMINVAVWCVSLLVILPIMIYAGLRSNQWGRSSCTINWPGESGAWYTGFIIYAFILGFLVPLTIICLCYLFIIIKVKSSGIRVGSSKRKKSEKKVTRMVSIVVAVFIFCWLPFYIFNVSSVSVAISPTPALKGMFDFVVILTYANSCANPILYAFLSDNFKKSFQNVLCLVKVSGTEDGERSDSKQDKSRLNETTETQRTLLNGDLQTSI
Somatostatin receptor (Mus musculus), sequence (P30873 whole entry): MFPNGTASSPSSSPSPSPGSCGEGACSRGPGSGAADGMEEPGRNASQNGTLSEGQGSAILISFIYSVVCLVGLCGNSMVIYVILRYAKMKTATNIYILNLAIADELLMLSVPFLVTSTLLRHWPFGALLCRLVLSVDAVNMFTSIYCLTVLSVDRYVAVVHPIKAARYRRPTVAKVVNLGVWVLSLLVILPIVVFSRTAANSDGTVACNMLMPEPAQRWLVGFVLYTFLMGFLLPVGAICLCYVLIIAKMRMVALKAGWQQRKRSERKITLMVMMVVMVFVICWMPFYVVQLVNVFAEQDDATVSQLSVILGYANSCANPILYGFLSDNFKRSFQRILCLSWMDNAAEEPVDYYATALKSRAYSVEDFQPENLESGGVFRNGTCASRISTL
Somatostatin receptor (Mus musculus), sequence (P49660 with tags, fused parts or gaps): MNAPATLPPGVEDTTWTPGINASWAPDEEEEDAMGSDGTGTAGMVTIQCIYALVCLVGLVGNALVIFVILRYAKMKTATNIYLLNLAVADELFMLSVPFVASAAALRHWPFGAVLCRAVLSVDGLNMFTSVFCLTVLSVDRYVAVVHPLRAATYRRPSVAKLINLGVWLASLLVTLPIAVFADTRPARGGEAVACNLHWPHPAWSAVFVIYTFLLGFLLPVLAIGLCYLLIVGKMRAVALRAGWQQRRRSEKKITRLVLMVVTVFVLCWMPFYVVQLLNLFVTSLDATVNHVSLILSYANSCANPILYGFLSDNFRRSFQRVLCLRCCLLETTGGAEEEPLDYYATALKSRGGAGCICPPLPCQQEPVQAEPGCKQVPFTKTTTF

[37] = molecular target: 5-hydroxytryptamine receptor 1A (Homo sapiens) (UniProt P08908); experiment: Displacement of [3H]8-OH-DPAT from human recombinant 5-HT1A receptor expressed in HEK293 cells at 1 uM; type: cell-based
[38] = molecular target: Adrenergic receptor alpha-2 (Rattus norvegicus) (UniProt P22086+P19328+P22909); experiment: Displacement of [3H]RX821002 from rat alpha2 receptor in cerebral cortex; type: tissue-based; conditions: concentration not given here
[39] = molecular target: Melatonin receptor type 1A (Homo sapiens) (UniProt P48039); experiment: Displacement of [125I]2-iodomelatonin from human recombinant MT1 receptor expressed in CHO cells at 1 uM; type: cell-based
Melatonin receptor type 1A (Homo sapiens), sequence (P48039 whole entry): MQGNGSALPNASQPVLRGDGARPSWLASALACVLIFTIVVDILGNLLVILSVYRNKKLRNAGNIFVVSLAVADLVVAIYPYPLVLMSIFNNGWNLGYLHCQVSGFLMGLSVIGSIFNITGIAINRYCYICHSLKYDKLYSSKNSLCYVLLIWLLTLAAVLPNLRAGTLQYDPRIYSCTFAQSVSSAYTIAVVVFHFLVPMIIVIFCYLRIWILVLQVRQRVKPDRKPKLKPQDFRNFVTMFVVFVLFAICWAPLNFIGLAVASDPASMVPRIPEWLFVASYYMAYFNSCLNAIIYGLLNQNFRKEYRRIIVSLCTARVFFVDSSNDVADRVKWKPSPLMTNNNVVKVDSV

[40] = molecular target: Sodium-dependent dopamine transporter (Homo sapiens) (UniProt Q01959); experiment: Displacement of [3H]BTCP from human recombinant DA transporter expressed in CHO cells at 1 uM; type: cell-based
[41] = molecular target: Galanin receptor type 2 (Homo sapiens) (UniProt O43603); experiment: Displacement of [125I]Galanin from human recombinant GAL2 receptor expressed in CHO cells at 1 uM; type: cell-based
[42] = molecular target: Neuropeptide Y receptor type 2 (Homo sapiens) (UniProt P49146); experiment: Displacement of [125I]peptideYY from human Y2 receptor in KAN-TS cells; type: cell-based; conditions: concentration not given here
[43] = molecular target: Adrenergic receptor alpha-1 (Rattus norvegicus) (UniProt P15823+P23944+P43140); experiment: Displacement of [3H]prazosin from rat alpha1 receptor in cerebral cortex; type: tissue-based; conditions: concentration not given here
[44] = molecular target: Beta-2 adrenergic receptor (Homo sapiens) (UniProt P07550); experiment: Displacement of [3H](-)CGP12177 from human recombinant beta2 receptor expressed in CHO cells at 1 uM; type: cell-based
Beta-2 adrenergic receptor (Homo sapiens), sequence (P07550 whole entry, looked up): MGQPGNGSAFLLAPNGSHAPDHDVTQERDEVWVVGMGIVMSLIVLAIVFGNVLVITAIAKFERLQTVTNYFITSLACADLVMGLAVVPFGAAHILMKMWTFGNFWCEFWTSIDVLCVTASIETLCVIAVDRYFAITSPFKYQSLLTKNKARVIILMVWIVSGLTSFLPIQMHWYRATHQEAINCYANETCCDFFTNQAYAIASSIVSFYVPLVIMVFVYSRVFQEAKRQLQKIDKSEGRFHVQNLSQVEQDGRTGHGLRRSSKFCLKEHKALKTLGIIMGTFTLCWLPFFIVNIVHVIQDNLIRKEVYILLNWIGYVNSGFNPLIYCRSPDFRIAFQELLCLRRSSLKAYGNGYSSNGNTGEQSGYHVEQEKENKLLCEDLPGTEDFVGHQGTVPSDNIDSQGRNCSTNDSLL

[45] = molecular target: Substance-K receptor (Homo sapiens) (UniProt P21452); experiment: Displacement of [125I]NKA from human recombinant NK2 receptor expressed in CHO cells at 1 uM; type: cell-based
[46] = molecular target: Vasopressin V1a receptor (Homo sapiens) (UniProt P37288); experiment: Displacement of [3H]AVP from human recombinant V1a receptor expressed in CHO cells at 1 uM; type: cell-based
[47] = molecular target: 5-hydroxytryptamine receptor 2B (Homo sapiens) (UniProt P41595); experiment: Displacement of [125I](+/-)DOI from human recombinant 5-HT2B receptor expressed in CHO cells at 1 uM; type: cell-based
[48] = molecular target: Cannabinoid receptor 1 (Homo sapiens) (UniProt P21554); experiment: Displacement of [3H]CP55940 from human recombinant CB1 receptor expressed in CHO cells at 1 uM; type: cell-based
[49] = molecular target: Thromboxane A2 receptor (Homo sapiens) (UniProt P21731); experiment: Displacement of [3H]SQ29548 from human recombinant TP receptor expressed in HEK293 cells at 1 uM; type: cell-based
[50] = organism: Rattus norvegicus; experiment: Displacement of [3H]GABA from rat GABA in cerebral cortex; type: tissue-based; conditions: concentration not given here
[51] = organism: Rattus norvegicus; experiment: Displacement of [3H]flunitrazepam from rat central BZD receptor in cerebral cortex; type: tissue-based; conditions: concentration not given here
[52] = molecular target: Muscarinic acetylcholine receptor M1 (Homo sapiens) (UniProt P11229); experiment: Displacement of [3H]pirenzepine from human recombinant muscarinic M1 receptor expressed in CHO cells at 1 uM; type: cell-based

Compound `CN1CCN(c2cccc(OC(=O)NCCCCCCc3ccccc3)c2)CC1` has a Ki [1] of 240 nM.

`CCCCCCCOc1ccc(NC(=O)Oc2cccc(N3CCNCC3)c2)cc1` showed an inhibition [2] of 30%, an inhibition [3] of 77% and an inhibition [4] of 4%. For the same compound, the inhibition [5] was 27%, the inhibition [6] was 22% and the inhibition [7] was 52%. It also gave an inhibition [8] of 9%, an inhibition [9] of 1% and an inhibition [10] of 70%. It also gave an inhibition [11] of -5%, an inhibition [12] of 3% and an inhibition [13] of 61%. The inhibition [14] was 2%, the inhibition [15] was 7% and the inhibition [16] was -5%. The inhibition [17] was -1%, the inhibition [18] was 42% and the inhibition [19] was -1%. It also gave an inhibition [20] of 7%, an inhibition [21] of 32% and an inhibition [22] of 66%. It also gave an inhibition [23] of 96%, a Ki [1] greater than 500 nM and an inhibition [24] of 27%. The inhibition [25] was -5%, the inhibition [26] was 96% and the inhibition [27] was 48%. The inhibition [28] was 14%, the inhibition [29] was 9% and the inhibition [30] was 36%. It also gave an inhibition [31] of -7%, an inhibition [32] of 3% and an inhibition [33] of 23%. For the same compound, the inhibition [34] was 35%, the inhibition [35] was 57% and the inhibition [36] was -2%. For the same compound, the inhibition [37] was 97%, the inhibition [38] was 52% and the inhibition [39] was -6%. For the same compound, the inhibition [40] was 103%, the inhibition [41] was -10% and the inhibition [42] was -9%. It also gave an inhibition [43] of 7%, an inhibition [44] of 19% and an inhibition [45] of -10%. It also gave an inhibition [46] of 17%, an inhibition [47] of 91% and an inhibition [48] of 30%. For the same compound, the inhibition [49] was 1%, the inhibition [50] was 0% and the inhibition [51] was 16%. The inhibition [52] was 28%.

With `Fc1ccc(OCCCCOc2cccc(N3CCNCC3)c2)cc1` the Ki [1] was greater than 500 nM.

Compound `N#Cc1ccn(-c2cccc(N3CCN(CCCCCCc4ccccc4)CC3)c2)c1` has a Ki [1] of 270 nM.

`NC(=O)c1ccn(-c2cccc(C(=O)N3CCN(CCCCCCc4ccccc4)CC3)c2)c1` gave a Ki [1] greater than 500 nM.
